# Like-named read-outs stand apart in the source and are kept apart here.
# Legend:
# K-Ras G12S = molecular target: T1, K-Ras G12S (Homo sapiens, UniProt P01116, G12S); experiment: HTRF assay of the K-Ras / SOS1 interaction; format: biochemical; conditions: IC50 (against K-Ras G12D) to IC50 (against K-Ras G12S)
# T1 construct: made in house; host or cells: E. coli (e.g., BL21 (DE3))
# Method in brief: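 GST-K-Ras G12S with anti-GST-Eu donor and His-hSOS1 with anti-6His-XL665 acceptor in ~5 mM HEPES pH 7.4, ~150 mM NaCl, 1 mM DTT, 0.05% BSA, 0.0025% Igepal. Read after ~10 min or longer; IC50 from 665/620 nm ratio, duplicates at 10 µM down to 0.01 µM.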
# [1] = molecular target: T2, KRAS protein (His-tagged GDP-loaded G12S 1-169) (Homo sapiens, UniProt P01116, G12S); experiment: Covalent modification of KRAS protein, intact-protein LC-MS; format: binding; conditions: 24hrs at room temperature, KRAS protein ~2 µM
# T2 construct: His-tagged GDP-loaded G12S 1-169
# Method: Test compounds are prepared as 10 mM stock solutions in DMSO (Fisher cat#BP231-100). KRAS protein (His-tagged GDP-loaded wildtype 1-169, His-tagged GDP-loaded G12S 1-169 or His-tagged GDP-loaded G12D 1-169) is diluted to ~2 µM in appropriate buffer (e.g., a Hepes buffer at physiological conditions). For testing KRAS modification, compounds are diluted to 50X final test concentration in DMSO in 96-well storage plates. 2 µl of the diluted 50X compounds are added to appropriate wells in the PCR plate (Fisher cat#AB-0800). […] of the stock protein solution is added to each well of the 96-well PCR plate. Reactions are mixed carefully. The plate is sealed well with aluminum plate seal, and stored in drawer at room temperature for 24hrs. 5 µl of 2% formic acid (Fisher cat#A1 17-50) in MilliQ H2O is then added to each well followed by mixing with a pipette. The plate is then resealed with aluminum seal and stored until mass spectrometry analysis.
# The extent of covalent modification of KRAS proteins was determined by liquid chromatography electrospray mass spectrometry analysis of the intact proteins on a Thermo Q-Exactive Plus mass spectrometer. 20 µl of sample was injected onto a bioZen 3.6 µm Intact C4 column (Phenomenex cat#00B-4767-AN) placed in a column oven set to 40°C and separated using a suitable LC gradient from -20% to ~60% solvent B. Solvent A was 0.1% formic acid and solvent B was 0.1% formic acid in acetonitrile. HESI source settings were set to 40, 5 and 1 for the sheath, auxiliary and sweep gas flow, respectively. The spray voltage was 4 kV, and the capillary temperature was 320°C. S-lens RF level was 50 and auxiliary gas heater temperature was set to 200°C. The mass spectrometry was acquired using a scan range from 650 to 1750 m/z using positive polarity at a mass resolution of 70,000, AGC target of 1e6 ions and maximum injection time of 250ms. The recorded protein mass spectrum was deconvoluted from the raw data file using Protein Deconvolution v4.0 (Thermo). The protein mass and adduct masses were exported with their peak intensities. The peak intensities for the unmodified and modified protein were used to calculate the percent covalent modification of the KRAS protein based on the following equation: %KRAS protein modification = ((KRAS-compound) / (KRAS) + (KRAS-Compound)) *100.
# GP2D cells = experiment: Cell proliferation assay (CellTiter-Glo), K-Ras G12D cells; format: cell-based; conditions: read-out: Inhibition of GP2D Cells (IC50)
# Method in brief: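 GP2D (K-Ras G12D) cells seeded in DMEM with 2 mM glutamine and 10% FBS, then dosed next day with a dilution series (e.g., 9-point 3-fold). Viability read by CellTiter-Glo luminescence after about 5 days. IC50 from four-parameter fit.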
Structure (SMILES),Ratio of IC50 KRAS G12D vs. IC50 KRAS G12S (K-Ras G12S),% G12S Modification at 24 hr. [1],IC50 (GP2D cells; GP2D cells (K-Ras G12D)),IC50 (GP2D cells; GP2d)
"N#Cc1cccn1C(=O)N1CCN(c2nc(OC[C@@]34CCCN3C[C@H](F)C4)nc3c(F)c(-c4ccc(F)c5sc(N)nc45)c(Cl)cc23)CC(F)(F)C1 [Compound A114, 1-(4-(7-(2-amino-7-fluorobenzo[d]thiazol-4-yl)-6-chloro-8-fluoro-2-(((2R,7aS)-2-fluorotetrahydro-1H-pyrrolizin-7a(5H)-yl)methoxy)quinazolin-4-yl)-6,6-difluoro-1,4-diazepane-1-carbonyl)-1H-pyrrole-2-carbonitrile]",A (A: indicates that the ratio of IC50 against KrasG12D vs. IC50 against KrasG12S is 1-fold or greater),+++ (+++ indicates greater than 20% labelling),,
"Nc1nc2c(-c3c(Cl)cc4c(N5CCCC6(CN(C(=O)n7cncn7)CCO6)C5)nc(OC[C@@]56CCCN5C[C@H](F)C6)nc4c3F)ccc(F)c2s1 (stereo partly drawn) [Compound A125, (8-(7-(2-amino-7-fluorobenzo[d]thiazol-4-yl)-6-chloro-8-fluoro-2-(((2R,7aS)-2-fluorotetrahydro-1H-pyrrolizin-7a(5H)-yl)methoxy)quinazolin-4-yl)-1-oxa-4,8-diazaspiro [5.5]undecan-4-yl)(1H-1,2,4-triazol-1-yl)methanone]",A (A: indicates that the ratio of IC50 against KrasG12D vs. IC50 against KrasG12S is 1-fold or greater),++ (++ indicates between about 1%- 20% labelling),,
"N#Cc1c(N)sc2c(F)ccc(-c3ncc4c(N5CCOC6(CN(C(=O)n7cncn7)C6)C5)nc(OC[C@@]56CCCN5C[C@H](F)C6)nc4c3F)c12 [Compound A161, 4-(4-(2-(1H-1,2,4-triazole-1-carbonyl)-5-oxa-2,8-diazaspiro[3.5]nonan-8-yl)-8-fluoro-2-(((2R,7aS)-2-fluorotetrahydro-1H-pyrrolizin-7a(5H)-yl)methoxy)pyrido[4,3-d]pyrimidin-7-yl)-2-amino-7-fluorobenzo[b]thiophene-3-carbonitrile]",A (A: indicates that the ratio of IC50 against KrasG12D vs. IC50 against KrasG12S is 1-fold or greater),+++ (+++ indicates greater than 20% labelling),,
"N#Cc1c(N)sc2c(F)ccc(-c3c(Cl)cc4c(OC5CCCCN(C(=O)n6cncn6)C5)nc(OC[C@@]56CCCN5C[C@H](F)C6)nc4c3F)c12 (stereo partly drawn) [Compound A169, 4-(4-((1-(1H-1,2,4-triazole-1-carbonyl)azepan-3-yl)oxy)-6-chloro-8-fluoro-2-(((2R,7aS)-2-fluorotetrahydro-1H-pyrrolizin-7a(5H)-yl)methoxy)quinazolin-7-yl)-2-amino-7-fluorobenzo[b]thiophene-3-carbonitrile]",A (A: indicates that the ratio of IC50 against KrasG12D vs. IC50 against KrasG12S is 1-fold or greater),+++ (+++ indicates greater than 20% labelling),,
"Nc1nc2c(-c3c(Cl)cc4c(N5CC6CCC(C5)N6C(=O)Nc5ncccn5)nc(OC[C@@]56CCCN5C[C@H](F)C6)nc4c3F)ccc(F)c2s1 [Compound A274, 3-(7-(2-amino-7-fluorobenzo[d]thiazol-4-yl)-6-chloro-8-fluoro-2-(((2R,7aS)-2-fluorotetrahydro-1H-pyrrolizin-7a(5H)-yl)methoxy)quinazolin-4-yl)-N-(pyrimidin-2-yl)-3,8-diazabicyclo[3.2. 1]octane-8-carboxamide]",A (A: indicates that the ratio of IC50 against KrasG12D vs. IC50 against KrasG12S is 1-fold or greater),,≤ 1000 nM,
"Nc1nc2c(-c3c(Cl)cc4c(N[C@@H]5C[C@H]6CC[C@@H](C5)N6C(=O)n5cncn5)nc(OC[C@@]56CCCN5C[C@H](F)C6)nc4c3F)ccc(F)c2s1 [Compound A286, ((1R,3s,5S)-3-((7-(2-amino-7-fluorobenzo[d]thiazol-4-yl)-6-chloro-8-fluoro-2-(((2R,7aS)-2-fluorotetrahydro-1H-pyrrolizin-7a(5H)-yl)methoxy)quinazolin-4-yl)amino)-8-azabicyclo[3.2.1]octan-8-yl)(1H-1,2,4-triazol-1-yl)methanone]",A (A: indicates that the ratio of IC50 against KrasG12D vs. IC50 against KrasG12S is 1-fold or greater),,,1000 to 10000 nM
"Nc1nc2c(-c3c(Cl)cc4c(N5CCC56CCN(C(=O)n5cncn5)CC6)nc(OC[C@@]56CCCN5C[C@H](F)C6)nc4c3F)ccc(F)c2s1 [Compound A288, (1-(7-(2-amino-7-fluorobenzo[d]thiazol-4-yl)-6-chloro-8-fluoro-2-(((2R,7aS)-2-fluorotetrahydro-1H-pyrrolizin-7a(5H)-yl)methoxy)quinazolin-4-yl)-1,7-diazaspiro[3.5]nonan-7-yl)(1H-1,2,4-triazol-1-yl)methanone]",A (A: indicates that the ratio of IC50 against KrasG12D vs. IC50 against KrasG12S is 1-fold or greater),,1000 to 10000 nM,
"Nc1nc2c(-c3c(Cl)cc4c(NC5CCN(C(=O)n6cc(F)cn6)CC5)nc(OC[C@@]56CCCN5C[C@H](F)C6)nc4c3F)ccc(F)c2s1 [Compound A291, (4-((7-(2-amino-7-fluorobenzo[d]thiazol-4-yl)-6-chloro-8-fluoro-2-(((2R,7aS)-2-fluorotetrahydro-1H-pyrrolizin-7a(5H)-yl)methoxy)quinazolin-4-yl)amino)piperidin-1-yl)(4-fluoro-1H-pyrazol-1-yl)methanone]",A (A: indicates that the ratio of IC50 against KrasG12D vs. IC50 against KrasG12S is 1-fold or greater),,1000 to 10000 nM,
"Nc1nc2c(-c3c(Cl)cc4c(N5CCC6CN(C(=O)n7cncn7)CC6C5)nc(OC[C@@]56CCCN5C[C@H](F)C6)nc4c3F)ccc(F)c2s1 (stereo partly drawn) [Compound A294, (5-(7-(2-amino-7-fluorobenzo[d]thiazol-4-yl)-6-chloro-8-fluoro-2-(((2R,7aS)-2-fluorotetrahydro-1H-pyrrolizin-7a(5H)-yl)methoxy)quinazolin-4-yl)octahydro-2H-pyrrolo[3,4-c]pyridin-2-yl)(1H-1,2,4-triazol-1-yl)methanone]",A (A: indicates that the ratio of IC50 against KrasG12D vs. IC50 against KrasG12S is 1-fold or greater),,1000 to 10000 nM,
"N#Cc1c(N)sc2c(F)ccc(-c3c(Cl)cc4c(O[C@H]5C[C@H]6CC[C@@H](C5)N6C(=O)n5cncn5)nc(OC[C@@]56CCCN5C[C@H](F)C6)nc4c3F)c12 [Compound A300, 4-(4-(((1R,3r,5S)-8-(1H-1,2,4-triazole-1-carbonyl)-8-azabicyclo[3.2.1]octan-3-yl)oxy)-6-chloro-8-fluoro-2-(((2R,7aS)-2-fluorotetrahydro-1H-pyrrolizin-7 a(5H)-yl)methoxy)quinazolin-7-yl)-2-amino-7-fluorobenzo[b]thiophene-3-carbonitrile]",A (A: indicates that the ratio of IC50 against KrasG12D vs. IC50 against KrasG12S is 1-fold or greater),,,1000 to 10000 nM
"Nc1nc2c(-c3c(Cl)cc4c(N5CCC6(CC5)CN(C(=O)n5cnc(F)c5)C6)nc(OC[C@@]56CCCN5C[C@H](F)C6)nc4c3F)ccc(F)c2s1 [Compound A303, (7-(7-(2-amino-7-fluorobenzo[d]thiazol-4-yl)-6-chloro-8-fluoro-2-(((2R,7aS)-2-fluorotetrahydro-1H-pyrrolizin-7a(5H)-yl)methoxy)quinazolin-4-yl)-2,7-diazaspiro[3.5]nonan-2-yl)(4-fluoro-1H-imidazol-1-yl)methanone]",A (A: indicates that the ratio of IC50 against KrasG12D vs. IC50 against KrasG12S is 1-fold or greater),,1000 to 10000 nM,
